experiment: Human HepG2 cell viability assay in 384 well format; assay type: toxicity, cell-based; design: dose 125 nL, time 70.5 hour; concentration not given beside the values; conditions: HepG2 cells, read-out: Inhibition

Row | SMILES | cytotoxicity at 70.5 h [%]
1 | Clc1ccccc1C1(c2ccnc(C3CC3)n2)CCNCC1 | 48.5
2 | CCO[C@H]1CC[C@H]2[C@H]1OCCN2C(=O)c1nn(C)c2ccccc12 | 0.53
3 | CN(C)[C@@H]1CCN(c2ncc(F)cn2)[C@H]1Cc1ccncc1 | -5.64
4 | COc1ccc(C(=O)C2CCCN(Cc3cnn(C)c3C)C2)c(OC)c1 (centres undefined) | -20.2
5 | O=C(CCc1cc(O)no1)N1CCCC(COc2ccccc2F)C1 (centres undefined) | -20.7
6 | CC(NC(=O)NCCCO)c1ccc(-c2ccncc2)cc1 (centres undefined) | -9.46
7 | O=C(CCc1ccc(=O)[nH]n1)N1CCCC(COc2ccc(F)cc2)C1 (centres undefined) | -1.69
8 | Cc1nnc(N2CCOC(C)(C(=O)N(C)C)C2)c2ccccc12 (centres undefined) | -8.96
9 | Cc1cc(Oc2ccccc2)nc(C2CCCCN2)n1 (centres undefined) | 13.4
10 | O=C(CC(F)(F)F)NC(c1ccc(Cl)cc1)c1ncon1 (centres undefined) | -3.08
11 | Cc1nnc(SCCC(=O)N(C)Cc2c(F)cccc2Cl)[nH]1 | -3.01
12 | Cc1ccccc1-c1noc(CNc2ccc(F)cc2OCCO)n1 | 1.21
13 | CN(C)c1ccc(NC(=O)N2CCCCCC2c2ccncc2)cn1 (centres undefined) | -10.6
14 | CN(C)C(=O)c1nn(C)c2c1CN(Cc1ccc(F)cc1)C2 | -6.32
15 | Cc1ccccc1CN(CCN(C)C)Cc1ccccc1C(=O)O | -7.13
16 | C1CC(c2noc(C3CC3)n2)CN(CCOCC2CC2)C1 (centres undefined) | 7.19
17 | COCC1CC2(CCN(C(=O)c3occc3C)CC2)CO1 (centres undefined) | -6.11
18 | Cc1cccn2cc(CN3CCCC(c4noc(C5CC5)n4)C3)nc12 (centres undefined) | 5.44
19 | CO[C@@H]1CCN(Cc2cnn(C)c2)[C@@H]2CN(Cc3ccco3)C[C@@H]21 | -13.3
20 | OC(CN1CCC(c2ccn[nH]2)CC1)c1ccc(F)cc1 (centres undefined) | 26.4
21 | CCN1CCCC1CNC(=O)c1cc(COc2cccc(F)c2)[nH]n1 (centres undefined) | 0.339
22 | CCCn1nc2c(cc1=O)CN(Cc1ccccn1)CC2 | 0.0556
23 | COCCN1CCN(C(=O)C[C@@H]2C[C@@H](C(C)C)[C@H](CO)C=C2C)CC1 | -3.05

Row | SMILES | cytotoxicity at 70.5 h [%]
24 | CCC(=O)N1CCC2(COCc3c(C)nc(N(C)C)nc32)C1 (centres undefined) | 20.3
25 | Cc1cc(C(=O)N2CCC3(CC2)C(=O)N(C)CCN3CC(C)C)c(C)o1 | -10.1
26 | COc1ccccc1CN(C)C(=O)NCc1c(C)cc(C)[nH]c1=O | -0.543
27 | CN(C)CCOCc1cncc2c1CCN(C1CCOCC1)C2 | -11.2
28 | COCC1COCCC12CCN(Cc1nccs1)CC2 (centres undefined) | -5.6
29 | Cc1nc(C2CCCN2CC(=O)NCCOc2ccc(F)cc2)no1 (centres undefined) | 47.6
30 | CN1N=C(C(=O)NCCc2csc(-c3ccccc3)n2)CCC1=O | -4.18
31 | CC(Cn1cccn1)NC(=O)c1ccsc1 (centres undefined) | -11.4
32 | COc1ccc(-c2ccncc2)cc1CNC1CCCC1 | -4.27
33 | CC1CCN(CCNCc2cc(-c3ccccc3)cn3nnnc23)CC1 | -3.94
34 | c1ccc2c(N3CCOCC3)cnnc2c1 | -8.59
35 | Cc1cc(N2CCCC(O)(CN(C)C)C2)c2cc3c(cc2n1)OCO3 (centres undefined) | 0.76
36 | Cc1cc(C)cc(N2CCN(Cc3cccnc3)CC2=O)c1 | -7.86
37 | Cc1cc(-c2cc(S(=O)(=O)N3C[C@H](C4CC4)[C@@H](N)C3)c(C)s2)[nH]n1 | -9.13
38 | CC(C)c1nn(C)c(N(C)C)c1CNCC(O)c1cccc(F)c1 (centres undefined) | -10
39 | Cn1nc2c(cc1=O)CN(CC(=O)Nc1nncs1)CC2 | -1.1
40 | Cc1cnn(C2CCCN(C(=O)CCc3cnn(C)c3)C2)c1 (centres undefined) | -4.01
41 | CCOc1ccccc1C(=O)Oc1cc(=O)n2cccc(C)c2n1 | -21.9
42 | CC(NC(=O)NCCCc1n[nH]c(N)c1C#N)c1ccc(Cl)cc1 (centres undefined) | -0.0754
43 | Cc1cccc(=O)n1CCCNc1nc(N(C)C)nc2c1CCNC2 | 18.8
44 | O=C1CC2(CCCNC2)C(=O)N1Cc1cccc(Cl)c1 (centres undefined) | 29.4
45 | CC(=O)N1CC(=O)N(c2cccnc2)CC12CCN(Cc1nccs1)C2 (centres undefined) | -0.821
46 | Cc1ccccc1C(C(=O)NCCN1CCC(CO)CC1)N(C)C (centres undefined) | -3

Row | SMILES | cytotoxicity at 70.5 h [%]
47 | Cc1nc(CN2CCCC2Cn2cccn2)nc2ccccc12 (centres undefined) | 7.51
48 | c1cnn(CCNCc2csc(-c3ccc4c(c3)OCO4)n2)c1 | -1.83
49 | N#CC1C(=O)Nc2c(cnn2C2CCCC2)C12CCCC2 (centres undefined) | -2.82
50 | CS(=O)(=O)NCC1CCCN(C(=O)COc2ccc(F)cc2)C1 (centres undefined) | -15.8
51 | O=C(NC[C@H]1OC[C@@H](NC(=O)C2CCCC2)[C@@H]1O)c1ccncc1 | 13.7
52 | CN1CCCC1c1cccc(Cc2ccccc2F)n1 (centres undefined) | 0.232
53 | Cc1cccc(C)c1NC(=O)c1n[nH]c(-n2cnnc2)n1 | -13.4
54 | Cc1ccc(N2CCO[C@H]3CN(Cc4ccncc4)C[C@H]32)nn1 | -8.56
55 | COc1ccc(N)c(N2CCN(C(C)=O)CC2)n1 | -11
56 | COCCCS(=O)(=O)N1CCN(C(C)(C)CO)CC1 | -7.76
57 | Cc1cc(C)cc(OCCNC(=O)C(C)Sc2nncn2C)c1 (centres undefined) | -10.3
58 | O=C1NC2(CCN(C(=O)Cc3ccsc3)CC2)CC1c1ccccc1 (centres undefined) | 0.488
59 | CCN(Cc1c(C)nn(C)c1C)C(=O)C1COc2ccccc2C1 (centres undefined) | -4.62
60 | Cc1nn(C)c(C)c1C1CCCN1C(=O)Cc1cn2ccsc2n1 (centres undefined) | 23.9
61 | CCN(CC)Cc1cc(C(=O)N2CC[C@@]3(O)CCCC[C@H]3C2)c(C)o1 | -9.79
62 | NC(=O)c1ccc(CN2CCCC(N3CCCCCC3)C2)cc1 (centres undefined) | 1.67
63 | Cn1cc2ncn(CCNc3cccnc3)c(=O)c2n1 | -3.81
64 | COc1ccc(C(=O)N(C)Cc2nnc3ccccn23)c(OC)c1 | -15.7
65 | COc1ccc(S(=O)(=O)N2CCOC(C)(C(N)=O)C2)cc1 (centres undefined) | -3.24
66 | CCc1ccc(-n2nnc(C(=O)O)c2-c2ccncc2)cc1 | -4.02
67 | COCCC(=O)N1CCCC2(CCC(=O)N(CCc3c[nH]cn3)C2)C1 (centres undefined) | -5.35
68 | COc1ccc(OC)c(CNCc2c(C)nc3sc(C)cn23)c1 | 16.5
69 | O=C(NCCc1ccccn1)C1CC(=O)N(CC(F)(F)F)C1 (centres undefined) | -2.42

Row | SMILES | cytotoxicity at 70.5 h [%]
70 | Cn1ccnc1CN1CCC2(CC1)CN(CC1CC1)C(=O)CO2 | 12.3
71 | CC(=O)c1ccc(N2CCC3(CCC(=O)N(C4CC4)C3)CC2)nc1 | -1.87
72 | CC(C)OCc1ncn2c1CN(Cc1ccoc1)CCC2 | -11.8
73 | CN1CC(C(=O)NCc2cccnc2-n2cccn2)CC1=O (centres undefined) | -6.03
74 | Clc1cccc(C(CNc2ncccn2)N2CCOCC2)c1 (centres undefined) | -5.68
75 | Cc1cc(OCC(=O)N2CCCC2c2noc(C)n2)no1 (centres undefined) | -13.8
76 | CN1CCN(S(C)(=O)=O)c2ccc(F)cc21 | -11.1
77 | O=C1NCC(C(=O)Nc2ncc(Cc3ccccc3)s2)N1 (centres undefined) | 44.7
78 | Cc1cnn(C2CCCN(C(=O)c3cn4ccccc4n3)C2)c1 (centres undefined) | 17.4
79 | CN(Cc1ccoc1)C(=O)CN1C(=O)OC(C)(C)C1=O | -8.72
80 | NC(=O)CSCC(=O)NC1(c2cccc(Cl)c2)CC1 | 2.26
81 | CN1CCN2CCN(Cc3cc(=O)n4c5c(cccc35)CCC4)CC2C1 (centres undefined) | -13.5
82 | CS(=O)(=O)CCN(Cc1cccc(O)c1)C1CCC(O)CC1 (centres undefined) | -4.64
83 | CCN(CC)C[C@H]1CN2CC[C@H]1C[C@@H]2CNC(=O)c1ccco1 | -3.47
84 | Cc1noc(C)c1C(=O)N1C[C@@H]2C[C@@H](c3ccncn3)O[C@@H]2C1 | -3.05
85 | Cc1ccc(Oc2ccc(NC(=O)NCC3CCOC3)cn2)cc1C (centres undefined) | 4.23
86 | c1cn(CC2CC2)c(C2CCN(CCC3CCOC3)CC2)n1 (centres undefined) | 21.7
87 | CC(C)=CCC1(C(=O)O)CCCN(c2ccnc(C)n2)C1 (centres undefined) | -3.8
88 | COCCC1COC2(CCN(C(=O)c3ccncc3)CC2)C1 (centres undefined) | 30.8
89 | COc1cccc(-c2cc(NCC(=O)O)nc3[nH]ccc23)n1 | 15.1
90 | CCCN1CCc2c(C(=O)N(C)Cc3ccccn3)nn(C)c2C1 | -6.22
91 | Cc1cc(C)cc(OCCN(C)C(=O)NC(C)c2nncn2C)c1 (centres undefined) | 17.7
92 | Cc1nc(CNc2ccc(C(=O)NCc3ccco3)cc2C)no1 | -11.5

Row | SMILES | cytotoxicity at 70.5 h [%]
93 | O=C(CC1CCCO1)N1CCCN(c2cccnn2)CC1 (centres undefined) | -3.32
94 | c1cnc(N2CCO[C@H]3CN(CC4CCCC4)C[C@H]32)cn1 | 2.36
95 | COCCN1CC2(CCCN(c3ncnc4[nH]cnc34)C2)CCC1=O (centres undefined) | -1.89
96 | CC(C)CCOCCNC(=O)Nc1ccc(F)c(C(N)=O)c1 | -1.3
97 | CN(C)C[C@@H]1C[C@@H]2CN(C(=O)c3ccoc3)CC[C@@H]2N1CC1CC1 | 24
98 | CS(=O)(=O)N1C[C@@H]2COC[C@]2(C(=O)NCCc2cccs2)C1 | -7.21
99 | O=C(CN1CCCC1c1cccs1)N1CCc2sccc2C1 (centres undefined) | -0.311
100 | CS(=O)(=O)NCc1cnc2n1CCN(Cc1ccoc1)CC2 | -9.11
101 | Cc1cc(C)nc(NCCC(=O)Nc2ccc(Cn3cncn3)cc2)n1 | -9.08
102 | CCc1nc(C2CCCN2Cc2cnc(C)cn2)no1 (centres undefined) | -3.7
103 | CC(C)NC(=O)CNC(=O)c1csc(Cc2ccccc2F)n1 | -4.54
104 | O=C(NCCN1CCOCC1)C(OC1CCCC1)c1ccccc1 (centres undefined) | -3.19
105 | CC(C)N1C[C@@H](F)[C@@H](OCc2nc3ncccc3[nH]2)C1 | -0.523
106 | Cc1ccc(C(=O)N2CCC3(CCC(=O)N(CC(N)=O)C3)CC2)c(O)c1 | -9.11
107 | COCCC(=O)N1CCN(CC2CC2)c2ncccc2C1 | 8.88
108 | CCS(=O)(=O)Cc1nnnn1-c1ccccc1 | -8.76
109 | Cc1ccc(CN2CCc3nc(C(C)C)nc(O)c3CC2)s1 | -4.74
110 | c1cc(-c2ccc3nc(C4CCN(CC5CC5)CC4)nn3c2)ccn1 | 3.64
111 | CC(C)c1cc(C(=O)N2CCN(Cc3ccc(C#N)cc3)CC2)n[nH]1 | -4.18
112 | CN(C)C(=O)c1nc2c(s1)CCN(C(=O)c1ccc(Cl)cc1)CC2 | -2.44
113 | Cc1ccc(CNCc2nnc3n2CCCC3C(F)(F)F)o1 (centres undefined) | 6.51
114 | Cn1nc(C(=O)NC2CCCC2)cc1NC(=O)C1CC1 | -8.78

Source: ChEMBL document CHEMBL3507680, “University of Dundee, Gates Library screen for HepG2 cell viability”
